Results published in PubChem BioAssay (NCI).
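All cell lines were grown in 96-well plates and treated with compound for 48 hours. Abbreviation: GI50, concentration required for 50% inhibition of growth. TGI denotes the concentration required for complete inhibition of growth.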

Key:
Assay in all cases: NCI-60 cell line screen, 48 h
ACHN renal = tested on: ACHN renal
HCT-116 colon = tested on: HCT-116 colon
HL-60(TB) leukemia = tested on: HL-60(TB) leukemia
MALME-3M melanoma = tested on: MALME-3M melanoma
OVCAR-5 ovarian = tested on: OVCAR-5 ovarian
OVCAR-8 ovarian = tested on: OVCAR-8 ovarian
PC-3 prostate = tested on: PC-3 prostate
SR leukemia = tested on: SR leukemia
SW-620 colon = tested on: SW-620 colon
SF-539 CNS = tested on: SF-539 CNS

| Structure (SMILES) | TGI (ACHN renal) | TGI (HCT-116 colon) | TGI (HL-60(TB) leukemia) | TGI (MALME-3M melanoma) | TGI (OVCAR-5 ovarian) | TGI (OVCAR-8 ovarian) | TGI (PC-3 prostate) | TGI (SR leukemia) | TGI (SW-620 colon) | TGI (SF-539 CNS) | GI50 (ACHN renal) | GI50 (HCT-116 colon) | GI50 (HL-60(TB) leukemia) | GI50 (MALME-3M melanoma) | GI50 (OVCAR-5 ovarian) | GI50 (OVCAR-8 ovarian) | GI50 (SF-539 CNS) | GI50 (SR leukemia) | GI50 (SW-620 colon) |
| --- | --- | --- | --- | --- | --- | --- | --- | --- | --- | --- | --- | --- | --- | --- | --- | --- | --- | --- | --- |
| O=C(N=Nc1ccccc1Cl)NNc1ccccc1Cl | 92.6 µM | > 100 µM | 44.9 µM | > 100 µM | > 100 µM | 81.7 µM | > 100 µM | > 100 µM | > 100 µM | – | – | – | – | – | – | – | – | – | – |
| O=C1NC(N2CCOCC2)=N/C1=C\c1ccc(O)cc1 | > 100 µM | > 100 µM | > 100 µM | > 100 µM | > 100 µM | > 100 µM | > 100 µM | > 100 µM | > 100 µM | > 100 µM | – | – | – | – | – | – | – | – | – |
| O=[N+]([O-])/C(C(Cl)=C(Cl)Cl)=C(/Nc1cccc2cccnc12)n1nnc2ccccc21 | 49.8 µM | > 100 µM | – | 19.7 µM | 58.3 µM | 32 µM | 51.3 µM | – | 31.3 µM | 38.2 µM | – | – | – | – | – | – | – | – | – |
| NC(=O)CN1C=CCC(C(N)=O)=C1 | > 100 µM | > 100 µM | > 100 µM | > 100 µM | > 100 µM | > 100 µM | > 100 µM | – | > 100 µM | > 100 µM | – | – | – | – | – | – | – | – | – |
| CCCCCCCCC#CCCCCCCCCCC[C@@H]1C(=O)O[C@H](C)[C@@H]1O (tested in a mixture with another compound) | 45.2 µM | > 100 µM | – | 44 µM | > 100 µM | 29.1 µM | 46.9 µM | – | 36.4 µM | 42.1 µM | – | – | – | – | – | – | – | – | – |
| COc1ccccc1C1C(C#N)=C(N)Oc2n[nH]c(C)c21 (centres undefined) | > 100 µM | > 100 µM | > 100 µM | > 100 µM | > 100 µM | > 100 µM | – | > 100 µM | > 100 µM | > 100 µM | > 100 µM | 90.7 µM | 62 µM | > 100 µM | > 100 µM | > 100 µM | > 100 µM | 37.8 µM | > 100 µM |
| CC(C)(C)OC(=O)c1ccc(NCC2=C(Br)C(=O)C=CC2=O)cc1 | 33.6 µM | 35.2 µM | – | 30.6 µM | 56.1 µM | 39.8 µM | > 100 µM | 79.7 µM | 34.9 µM | 52.8 µM | – | – | – | – | – | – | – | – | – |
| C#CCOC(=O)c1ccc(OC(C)=O)cc1 | > 100 µM | > 100 µM | – | – | > 100 µM | > 100 µM | > 100 µM | > 100 µM | > 100 µM | > 100 µM | – | – | – | – | – | – | – | – | – |
| CC1(C)O[C@@H](C[C@]2(C#N)C[C@H](CCl)OC(C)(C)O2)C[C@@H](C#N)O1 | > 100 µM | > 100 µM | > 100 µM | > 100 µM | > 100 µM | > 100 µM | – | > 100 µM | > 100 µM | > 100 µM | – | – | – | – | – | – | – | – | – |
| CCOc1cc2c(cc1O)C(O)C[C@@H]1[C@@H]2CC[C@]2(C)[C@@H](O)CC[C@@H]12 (some centres undefined) | > 100 µM | > 100 µM | – | > 100 µM | > 100 µM | > 50.4 µM | > 100 µM | > 100 µM | > 100 µM | 3.6 µM | – | – | – | – | – | – | – | – | – |
| C[C@H](C1CC2(C)OC2(C)C(=O)O1)[C@H]1CC[C@H]2[C@@H]3[C@@H]4O[C@@H]4[C@@]4(O)CC=CC(=O)[C@]4(C)[C@H]3CC[C@]12C (some centres undefined) | > 50 µM | > 50 µM | > 50 µM | – | > 50 µM | > 50 µM | > 50 µM | – | > 50 µM | – | – | – | – | – | – | – | – | – | – |
